# Source: patent publication US10973245B2, “Immunomodulatory and growth promoting and controlling composition of intestinal microbiota undesirable bacteria and its use” (YESSINERGY HOLDING S/A, priority 2016, dated 2021)
# Marks after values point to notes of the source that are not given here.
# What was measured:
# [1] = Diarrhea index in piglets (Example 4); format: in vivo, PIC genetics
# Protocol: (§1) Composition of Example 4 was tested in piglets to evaluate their performance ratio in comparison with growth promoter antibiotic (GPA) and with sodium butyrate. All were added to the rations of the respective treatments as growth promoting additives.
# (§2) Sixty-three piglets were weaned at 22 days of age, with a start average body weight of 5.48 kg, both sexes, PIC genetics. The animals were separated by sex and distributed into 3 treatments, with 7 replicates of 3 animals each, during the whole period (22 to 64 days of age). Diet was formulated without Zinc Oxide or any other antimicrobial.
# (§3) T1: Basal Diet+GPA (colistin 8%—40 ppm)
# (§4) T2: Basal Diet+Sodium Butyrate 30% (1 kg/t)
# (§5) T3: Basal Diet+Composition of the Invention of Example 4 (2 kg/t)
# [2] = Fatty acids in cecum of piglets (Example 4); format: in vivo, PIC genetics
# Protocol: as §1, §2, §3, §4, §5
# [3] = system: sulfite-reducing Clostridium; test: Sulfite-reducing Clostridium CFU count in cecum fecal material of challenged chickens (Examples 8, 9, 10); format: in vivo; conditions: cecum fecal material at 28 days; colony forming units
# Description: Compositions of examples 8, 9 and 10 were used as growth promoting additives for growing chicken feeds, i.e., during the first 28 days of life, to evaluate the control of Salmonella heidelbergii. On the fourth day of life, 20% of the birds were inoculated with Salmonella heidelbergii. At the end of the 28 days, fecal material was collected from the cecum of the birds and the counting of colony forming units (CFUs) of Salmonella and sulfite-reducing Clostridium.
# The treatments were as follows:
# T1: Basal Diet+SH Challenge—WITHOUT GPA (growth promoting antibiotic)
# T2: Basic Diet+SH+APC Challenge (Enramicima 8 ppm)
# T3: Basal Diet+SH Challenge+Sodium Butyrate (1.5 kg/t of feed)
# T4: Basal Diet+Composition of the Invention of Example 8—3 kg/t
# T5: Basal Diet+Composition of the Invention of Example 9—3 kg/t
# T6: Basal Diet+Composition of the Invention of Example 10—3 kg/t
# T7: Basal Diet+Composition of the Invention of Example 9—3 kg/t+Probiotic
# [4] = Piglet performance with growth promoting additives (Example 4); format: in vivo, PIC genetics; conditions: piglets 22 to 64 days of age
# Protocol: as §1, §2, §3, §4, §5
# [5] = Growth promoter additives in commercial broiler chicken diets (Examples 2 and 3 vs Zinc Bacitracin); format: in vivo, commercial broiler chickens
# Protocol: (§6) Formulations of examples 2 and 3 were administered to commercial broiler chickens, with an inclusion of 2 kg per ton of feed. The results are shown in Tables 12 (Diets with Zinc Bacitracin Antibiotic, As Growth Promoter Additives), 13 (Diets with the Composition of Example 2, as Growth Promoter Additives) and 14 (Diets with the Composition of Example 3, As Growth Promoter Additive) below.
# (§7) Note: (*)—Salmonella Control Efficiency Index, measured by conducting a ‘propé’ [shoe covers] drag swab tests. Antibiotic=100 (**)—Zinc Bacitracin
# Salmonella = Salmonella Control Efficiency Index by 'propé' drag swab tests, commercial broiler chickens; format: in vivo; conditions: Antibiotic=100
# Protocol: as §6, §7
compound,measurement,setting,value
CCCC(=O)[O-].[Na+] [Sodium Butyrate],Diarrhea index,[1]; Grade I,22^b
same,Diarrhea index,[1]; Grade II,33^ab
same,Diarrhea index,[1]; Grade III,53^b
same,Fatty acids in Cecum: Acetic,[2],0.38
same,Fatty acids in Cecum: Butyric,[2],0.18
same,Fatty acids in Cecum: Propionic,[2],0.32^a
same,Fatty acids in Cecum: Total,[2],0.87
same,Sulfite-reducing Clostridium,[3],4959
same,CA = feed conversion,[4],2.07
Zinc Bacitracin,Feed Conversion,[5]; Average of Productions 1-4,1.69
same,Final Average Body Weight,[5]; Average of Productions 1-4,3.11 kgBW/bird
same,Food Intake,[5]; Average of Productions 1-4,5.159 kg/Bird
same,Feed Conversion,[5]; Production 1,1.72
same,Final Average Body Weight,[5]; Production 1,3.14 kgBW/bird
same,Food Intake,[5]; Production 1,5.329 kg/Bird
same,Feed Conversion,[5]; Production 2,1.71
same,Final Average Body Weight,[5]; Production 2,3.07 kgBW/bird
same,Food Intake,[5]; Production 2,5.167 kg/Bird
same,Feed Conversion,[5]; Production 3,1.60
same,Final Average Body Weight,[5]; Production 3,3.20 kgBW/bird
same,Food Intake,[5]; Production 3,5.034 kg/Bird
same,Feed Conversion,[5]; Production 4,1.72
same,Final Average Body Weight,[5]; Production 4,3.01 kgBW/bird
same,Food Intake,[5]; Production 4,5.105 kg/Bird
same,Control of Salmonella (Salmonella Control Efficiency Index),Salmonella; Average of Productions 1-4,100
same,Control of Salmonella (Salmonella Control Efficiency Index),Salmonella; Production 1,100
same,Control of Salmonella (Salmonella Control Efficiency Index),Salmonella; Production 2,100
same,Control of Salmonella (Salmonella Control Efficiency Index),Salmonella; Production 3,100
same,Control of Salmonella (Salmonella Control Efficiency Index),Salmonella; Production 4,100
